Laboratory results reported in paper PMC10175918 (Communications Biology, 2023).
Like-named read-outs stand apart in the source and are kept apart here. One block for each compound: values may come before it.

What was measured:
Assay in all cases: cell-based
Set-up in all cases: species or system HEK293A; AP-TGFα shedding assay, transfected GPCR plus chimeric Gα mixture, AP release as % of TPA response
Settings in all cases: HEK293-A
[1] = target: T1, 5-hydroxytryptamine receptor 1F (Homo sapiens, UniProt P30939)
T1 construct: gene HTR1F
T1 sequence (P30939 1-366): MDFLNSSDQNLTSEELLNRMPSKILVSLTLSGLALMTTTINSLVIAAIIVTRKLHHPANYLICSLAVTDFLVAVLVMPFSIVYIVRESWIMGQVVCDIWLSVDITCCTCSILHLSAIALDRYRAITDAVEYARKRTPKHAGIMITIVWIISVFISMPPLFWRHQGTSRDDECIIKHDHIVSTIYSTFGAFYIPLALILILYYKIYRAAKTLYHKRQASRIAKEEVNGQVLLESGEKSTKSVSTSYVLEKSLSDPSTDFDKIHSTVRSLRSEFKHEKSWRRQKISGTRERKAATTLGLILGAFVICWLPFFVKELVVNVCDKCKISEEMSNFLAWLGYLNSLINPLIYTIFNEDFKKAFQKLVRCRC

[2] = target: T2, G protein-coupled receptor 18 (Homo sapiens, UniProt Q14330)
T2 construct: gene GPR18
T2 sequence (Q14330 1-331): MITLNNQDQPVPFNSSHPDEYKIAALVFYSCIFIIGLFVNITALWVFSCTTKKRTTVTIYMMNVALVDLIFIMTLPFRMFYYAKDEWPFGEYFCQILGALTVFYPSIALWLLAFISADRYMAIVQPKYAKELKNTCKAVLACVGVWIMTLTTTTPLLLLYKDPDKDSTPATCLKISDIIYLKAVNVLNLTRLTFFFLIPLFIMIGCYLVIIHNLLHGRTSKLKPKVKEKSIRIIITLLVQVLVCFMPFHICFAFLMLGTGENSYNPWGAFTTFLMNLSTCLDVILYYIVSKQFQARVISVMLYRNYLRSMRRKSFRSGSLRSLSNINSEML

[3] = target: T3, G protein-coupled receptor 68 long (Homo sapiens, UniProt Q15743)
T3 construct: gene GPR68; long isoform

adenosine A2a receptor = target: T4, adenosine A2a receptor (Homo sapiens, UniProt P29274)
T4 construct: gene ADORA2A

[4] = target: T5, leukotriene B4 receptor 2 (Homo sapiens, UniProt Q9NPC1)
T5 construct: gene LTB4R2
T5 sequence (Q9NPC1 1-358): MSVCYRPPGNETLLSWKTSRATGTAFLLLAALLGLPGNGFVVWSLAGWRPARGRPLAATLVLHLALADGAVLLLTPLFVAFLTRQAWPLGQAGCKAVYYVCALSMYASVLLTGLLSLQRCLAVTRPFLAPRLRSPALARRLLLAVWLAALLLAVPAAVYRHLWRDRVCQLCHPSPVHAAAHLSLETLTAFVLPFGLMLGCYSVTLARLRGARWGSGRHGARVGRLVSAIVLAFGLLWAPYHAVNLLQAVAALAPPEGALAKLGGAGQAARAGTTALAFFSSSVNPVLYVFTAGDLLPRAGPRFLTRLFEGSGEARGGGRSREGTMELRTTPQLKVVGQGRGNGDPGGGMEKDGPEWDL

[5] = target: T6, lysophosphatidic acid receptor 4 (Homo sapiens, UniProt Q99677)
T6 construct: gene LPAR4

[6] = target: T7, neurotensin receptor type 2 (Homo sapiens, UniProt O95665)
T7 construct: gene NTSR2

[7] = target: T8, purinergic receptor P2Y, G-protein coupled, 1 (Homo sapiens, UniProt P47900)
T8 construct: gene P2RY1

[8] = target: T9, relaxin/insulin-like family peptide receptor 1 (Homo sapiens, UniProt Q9HBX9)
T9 construct: gene RXFP1
T9 sequence (Q9HBX9 1-757): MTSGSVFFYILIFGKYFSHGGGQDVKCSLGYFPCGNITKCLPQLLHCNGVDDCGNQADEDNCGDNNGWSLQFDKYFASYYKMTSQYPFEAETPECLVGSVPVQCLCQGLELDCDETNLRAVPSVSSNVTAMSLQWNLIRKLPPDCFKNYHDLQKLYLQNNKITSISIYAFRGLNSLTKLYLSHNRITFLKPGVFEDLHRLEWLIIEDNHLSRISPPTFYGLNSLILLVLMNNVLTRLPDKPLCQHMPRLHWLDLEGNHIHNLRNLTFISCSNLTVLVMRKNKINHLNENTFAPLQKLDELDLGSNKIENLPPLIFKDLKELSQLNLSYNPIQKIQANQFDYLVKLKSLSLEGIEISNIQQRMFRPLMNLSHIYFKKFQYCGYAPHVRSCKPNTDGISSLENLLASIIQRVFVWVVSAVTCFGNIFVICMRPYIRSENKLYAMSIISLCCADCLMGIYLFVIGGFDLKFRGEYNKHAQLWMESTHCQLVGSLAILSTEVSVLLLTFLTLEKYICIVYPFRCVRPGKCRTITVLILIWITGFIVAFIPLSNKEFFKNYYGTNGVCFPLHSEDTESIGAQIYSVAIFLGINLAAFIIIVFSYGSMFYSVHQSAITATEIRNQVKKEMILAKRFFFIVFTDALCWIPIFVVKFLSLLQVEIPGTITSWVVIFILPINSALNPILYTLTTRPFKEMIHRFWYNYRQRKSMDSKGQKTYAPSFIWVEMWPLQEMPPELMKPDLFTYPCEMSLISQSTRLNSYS

[9] = read-out: % GPCR activation of 10μM GS441524 compared to TPA
[10] = read-out: % GPCR activation of 100μM Favipiravir compared to TPA
[11] = read-out: % GPCR activation of 10µM Molnupiravir compared to TPA
[12] = read-out: % GPCR activation of 10µM Remdesivir compared to TPA
[13] = read-out: % GPCR activation of 10μM Sofosbuvir compared to TPA

T4 sequence (P29274 whole entry): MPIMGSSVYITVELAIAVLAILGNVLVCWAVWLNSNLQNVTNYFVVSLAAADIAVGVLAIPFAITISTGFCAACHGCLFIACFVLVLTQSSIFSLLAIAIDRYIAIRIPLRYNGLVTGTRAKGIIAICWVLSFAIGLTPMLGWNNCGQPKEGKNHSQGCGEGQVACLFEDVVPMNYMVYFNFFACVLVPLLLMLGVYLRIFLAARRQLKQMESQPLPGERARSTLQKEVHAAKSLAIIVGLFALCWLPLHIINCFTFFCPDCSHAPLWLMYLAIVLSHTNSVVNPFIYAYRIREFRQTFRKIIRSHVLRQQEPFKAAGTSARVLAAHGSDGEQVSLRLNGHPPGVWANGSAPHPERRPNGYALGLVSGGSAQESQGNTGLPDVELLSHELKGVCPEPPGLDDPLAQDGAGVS
T6 sequence (Q99677 whole entry): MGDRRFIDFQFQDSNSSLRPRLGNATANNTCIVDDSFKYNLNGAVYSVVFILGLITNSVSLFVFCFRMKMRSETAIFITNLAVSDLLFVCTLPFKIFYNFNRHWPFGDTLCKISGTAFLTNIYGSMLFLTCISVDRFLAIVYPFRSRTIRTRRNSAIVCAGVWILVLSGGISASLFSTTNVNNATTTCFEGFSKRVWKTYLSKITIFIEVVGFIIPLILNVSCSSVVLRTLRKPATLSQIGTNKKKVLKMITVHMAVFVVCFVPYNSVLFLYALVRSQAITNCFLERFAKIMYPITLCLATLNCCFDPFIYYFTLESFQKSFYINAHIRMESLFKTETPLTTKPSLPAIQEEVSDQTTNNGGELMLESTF
T7 sequence (O95665 whole entry): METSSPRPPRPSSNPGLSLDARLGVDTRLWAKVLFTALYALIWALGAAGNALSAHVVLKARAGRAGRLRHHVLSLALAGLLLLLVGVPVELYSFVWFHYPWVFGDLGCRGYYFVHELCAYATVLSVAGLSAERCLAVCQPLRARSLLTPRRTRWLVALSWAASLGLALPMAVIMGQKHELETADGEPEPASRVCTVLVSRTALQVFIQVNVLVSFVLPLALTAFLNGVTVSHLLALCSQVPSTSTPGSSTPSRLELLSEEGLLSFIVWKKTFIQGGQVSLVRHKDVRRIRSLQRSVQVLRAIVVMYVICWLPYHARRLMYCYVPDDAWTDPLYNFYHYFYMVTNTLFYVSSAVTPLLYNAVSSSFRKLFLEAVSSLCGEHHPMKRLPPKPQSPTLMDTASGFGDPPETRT
T8 sequence (P47900 whole entry): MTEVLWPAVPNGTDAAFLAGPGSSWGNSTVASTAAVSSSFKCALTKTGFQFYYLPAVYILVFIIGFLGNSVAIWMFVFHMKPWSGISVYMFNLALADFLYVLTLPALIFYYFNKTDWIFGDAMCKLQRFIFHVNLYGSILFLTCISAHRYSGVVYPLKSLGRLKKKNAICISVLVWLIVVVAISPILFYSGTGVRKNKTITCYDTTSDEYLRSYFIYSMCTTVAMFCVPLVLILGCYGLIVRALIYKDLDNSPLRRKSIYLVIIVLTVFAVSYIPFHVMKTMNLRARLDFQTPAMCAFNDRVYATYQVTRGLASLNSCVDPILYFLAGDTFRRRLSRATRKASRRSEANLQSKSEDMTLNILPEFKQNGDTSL
T3 sequence (Q15743 whole entry, canonical isoform): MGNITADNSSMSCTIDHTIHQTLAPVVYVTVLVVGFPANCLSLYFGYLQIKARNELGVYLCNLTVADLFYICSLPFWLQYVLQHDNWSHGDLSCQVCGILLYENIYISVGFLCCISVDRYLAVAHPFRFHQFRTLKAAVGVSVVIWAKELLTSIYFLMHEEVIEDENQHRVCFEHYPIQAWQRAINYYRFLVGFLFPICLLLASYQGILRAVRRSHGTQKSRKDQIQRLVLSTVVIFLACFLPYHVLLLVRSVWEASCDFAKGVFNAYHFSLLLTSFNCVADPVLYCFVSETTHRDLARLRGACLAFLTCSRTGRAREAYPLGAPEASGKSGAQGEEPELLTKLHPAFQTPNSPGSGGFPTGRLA

SMILES: N#C[C@@]1(c2ccc3c(N)ncnn23)O[C@H](CO)[C@@H](O)[C@H]1O [GS441524]
activity at 10 µM [1, 9]: 0.356%
activity at 10 µM [2, 9]: 2.08%
activity at 10 µM [3, 9]: 3.27%
activity at 10 µM (adenosine A2a receptor; [9]): 1.63%
activity at 10 µM [4, 9]: -0.182%
activity at 10 µM [5, 9]: 1.19%
activity at 10 µM [6, 9]: 1.01%
activity at 10 µM [7, 9]: -0.459%
activity at 10 µM [8, 9]: -1.09%

SMILES: CCC(CC)COC(=O)[C@H](C)N[P@](=O)(OC[C@H]1O[C@@](C#N)(c2ccc3c(N)ncnn23)[C@H](O)[C@@H]1O)Oc1ccccc1 [remdesivir]
activity at 10 µM [1, 12]: -2.15%
activity at 10 µM [2, 12]: 1.12%
activity at 10 µM [3, 12]: -2.93%
activity at 10 µM (adenosine A2a receptor; [12]): 3.96%
activity at 10 µM [4, 12]: -0.974%
activity at 10 µM [5, 12]: -0.0834%
activity at 10 µM [6, 12]: -1.86%
activity at 10 µM [7, 12]: 11%
activity at 10 µM [8, 12]: -0.564%

SMILES: CC(C)OC(=O)[C@H](C)N[P@](=O)(OC[C@H]1O[C@@H](n2ccc(=O)[nH]c2=O)[C@](C)(F)[C@@H]1O)Oc1ccccc1 [sofosbuvir]
activity at 10 µM [1, 13]: -0.816%
activity at 10 µM [2, 13]: -3.04%
activity at 10 µM [3, 13]: -162%
activity at 10 µM (adenosine A2a receptor; [13]): -2.15%
activity at 10 µM [4, 13]: 1.86%
activity at 10 µM [5, 13]: 3.13%
activity at 10 µM [6, 13]: 0.255%
activity at 10 µM [7, 13]: -4.63%
activity at 10 µM [8, 13]: 0.456%

Now from value to compound:

activity at 100 µM [1, 10]: 1.63%
activity at 100 µM [2, 10]: -1%
activity at 100 µM [3, 10]: 5.02%
activity at 100 µM (adenosine A2a receptor; [10]): 2.34%
activity at 100 µM [4, 10]: -0.0275%
activity at 100 µM [5, 10]: -0.546%
activity at 100 µM [6, 10]: -3.41%
activity at 100 µM [7, 10]: 0.43%
activity at 100 µM [8, 10]: 0.274%
SMILES: NC(=O)c1nc(F)cnc1O [favipiravir, 6-fluoro-3-hydroxy-2-pyrazinecarboxamide]

activity at 10 µM [1, 11]: 0.719%
activity at 10 µM [2, 11]: -5.39%
activity at 10 µM [3, 11]: -160%
activity at 10 µM (adenosine A2a receptor; [11]): -1.95%
activity at 10 µM [4, 11]: -0.206%
activity at 10 µM [5, 11]: -0.213%
activity at 10 µM [6, 11]: 0.128%
activity at 10 µM [7, 11]: -11.8%
activity at 10 µM [8, 11]: -0.957%
SMILES: CC(C)C(=O)OC[C@H]1O[C@@H](n2ccc(NO)nc2=O)[C@H](O)[C@@H]1O [molnupiravir]
